Laboratory results: ChEMBL document CHEMBL5226310, “Synthesis and Characterization of Novel Mono- and Bis-Guanyl Hydrazones as Potent and Selective ASIC1 Inhibitors Able to Reduce Brain Ischemic Insult” (J Med Chem, 2021)
One block for each compound: values may come before it. Activity calls are given as the source filed them. No cut-off for these calls is given here.

Key:
[1] = target: T1, Acid-sensing ion channel 1 (Homo sapiens, UniProt P78348); assay: Inhibition of human ASIC1a in HEK293 cells assessed as inward proton-gated current at pH 6.0 incubated with compound followed by PcTx1 addition by patch-clamp electrophysiology; assay type: cell-based
T1 sequence (P78348 whole entry): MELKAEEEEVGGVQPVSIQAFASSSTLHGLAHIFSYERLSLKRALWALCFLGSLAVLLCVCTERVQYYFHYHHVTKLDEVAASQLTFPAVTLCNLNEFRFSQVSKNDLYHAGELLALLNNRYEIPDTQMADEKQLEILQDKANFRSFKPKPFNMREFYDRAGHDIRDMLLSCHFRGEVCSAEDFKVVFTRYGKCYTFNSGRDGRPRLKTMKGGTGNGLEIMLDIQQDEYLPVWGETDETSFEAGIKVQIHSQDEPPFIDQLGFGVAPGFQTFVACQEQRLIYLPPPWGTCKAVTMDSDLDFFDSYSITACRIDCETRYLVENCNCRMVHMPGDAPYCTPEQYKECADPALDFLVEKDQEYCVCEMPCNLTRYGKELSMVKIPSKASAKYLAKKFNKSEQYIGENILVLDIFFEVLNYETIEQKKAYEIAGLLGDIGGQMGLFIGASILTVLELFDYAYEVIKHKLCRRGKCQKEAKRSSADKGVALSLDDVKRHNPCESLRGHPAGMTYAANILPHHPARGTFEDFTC

Cortical neurone [2] = assay: Neuroprotective activity in OGD/Rx-induced E16 Wistar rat Primary cortical neurons assessed as increase in cell viability at 2.9 uM incubated for 3 hrs during OGD followed by reoxygenation with compound re-addition measured after 21 hrs by MTT assay; assay type: functional, cell-based; conditions: time 24.0 hrs
[3] = target: T2, Acid-sensing ion channel 2 (Mus musculus) (UniProt Q925H0); assay: Inhibition of mouse ASIC2a expressed in genetically engineered-CHO-K1 cells at 10 uM preincubated for 10 mins at pH 7.4 followed by cell stimulation with proton injection at pH 6.5 by electro-chromic fluorescence voltage sensor-based assay relative to control
T2 sequence (whole entry): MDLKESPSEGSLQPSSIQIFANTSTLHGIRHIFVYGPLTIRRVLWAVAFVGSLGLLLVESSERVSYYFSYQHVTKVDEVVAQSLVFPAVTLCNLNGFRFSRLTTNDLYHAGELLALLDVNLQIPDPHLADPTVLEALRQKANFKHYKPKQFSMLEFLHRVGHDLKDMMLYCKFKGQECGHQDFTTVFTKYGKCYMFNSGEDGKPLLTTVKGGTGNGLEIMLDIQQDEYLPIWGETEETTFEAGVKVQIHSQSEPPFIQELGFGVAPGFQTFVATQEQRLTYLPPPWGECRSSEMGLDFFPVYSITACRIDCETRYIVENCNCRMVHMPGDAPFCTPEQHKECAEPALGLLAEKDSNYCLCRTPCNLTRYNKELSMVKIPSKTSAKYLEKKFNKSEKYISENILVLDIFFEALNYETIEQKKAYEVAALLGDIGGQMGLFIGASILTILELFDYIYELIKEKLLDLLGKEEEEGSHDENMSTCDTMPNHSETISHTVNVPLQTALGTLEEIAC

[4] = target: T3, Acid-sensing ion channel 1 (Mus musculus) (UniProt Q6NXK8); assay: Inhibition of mouse ASIC1a expressed in genetically engineered-CHO-K1 cells at 10 uM preincubated for 10 mins at pH 7.4 followed by cell stimulation with proton injection at pH 6.5 by electro-chromic fluorescence voltage sensor-based assay relative to control
T3 sequence (whole entry): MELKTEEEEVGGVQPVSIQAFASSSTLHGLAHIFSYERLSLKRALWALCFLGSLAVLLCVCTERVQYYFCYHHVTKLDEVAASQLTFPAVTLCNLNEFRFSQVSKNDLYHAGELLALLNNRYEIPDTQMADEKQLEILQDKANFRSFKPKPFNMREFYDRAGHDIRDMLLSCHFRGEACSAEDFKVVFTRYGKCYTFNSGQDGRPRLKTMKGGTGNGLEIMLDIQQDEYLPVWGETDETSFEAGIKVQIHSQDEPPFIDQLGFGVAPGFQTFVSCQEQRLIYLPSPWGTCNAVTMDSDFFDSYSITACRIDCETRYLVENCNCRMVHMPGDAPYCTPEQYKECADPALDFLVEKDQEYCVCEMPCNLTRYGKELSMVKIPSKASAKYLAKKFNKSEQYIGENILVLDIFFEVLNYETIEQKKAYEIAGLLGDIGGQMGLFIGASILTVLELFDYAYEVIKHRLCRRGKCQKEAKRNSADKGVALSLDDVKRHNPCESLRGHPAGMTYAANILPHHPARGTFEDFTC

Cortical neurone [5] = assay: Neuroprotective activity in OGD/Rx-induced E16 Wistar rat Primary cortical neurons assessed as increase in cell viability at 0.52 uM incubated for 3 hrs during OGD followed by reoxygenation with compound re-addition measured after 21 hrs by MTT assay; assay type: functional, cell-based; conditions: time 24.0 hrs
Cortical neurone [6] = assay: Neuroprotective activity in OGD/Rx-induced E16 Wistar rat Primary cortical neurons assessed as increase in cell viability at 9.5 uM incubated for 3 hrs during OGD followed by reoxygenation with compound re-addition measured after 21 hrs by MTT assay; assay type: functional, cell-based; conditions: time 24.0 hrs
Mus musculus [7] = assay: Neuroprotective activity in mouse model of middle cerebral artery occlusion-induced transient brain ischemia assessed as reduction in general neurological deficits at 0.65 mg/kg, ip administered thrice measured after 24 hrs; assay type: functional, organism-based
Cortical neurone [8] = assay: Neuroprotective activity in OGD/Rx-induced E16 Wistar rat Primary cortical neurons assessed as increase in cell viability at 0.4 uM incubated for 3 hrs during OGD followed by compound removal and reoxygenation measured after 21 hrs by MTT assay; assay type: functional, cell-based
[9] = target: T4, Acid-sensing ion channel 1 (Homo sapiens) (UniProt P78348); assay: Inhibition of ASIC1a in acid stimulated-human Neural Progenitor Cells assessed as reduction in current amplitude at pH 6.5 at 10 uM measured for 5 mins with acid stimulation for every 2 mins by electrophysiology relative to control; assay type: cell-based; conditions: Neural Progenitor Cell
T4 sequence (whole entry): T1 sequence (P78348 whole entry)

Mus musculus [10] = assay: Neuroprotective activity in mouse model of middle cerebral artery occlusion-induced transient brain ischemia assessed as reduction in focal neurological deficits at 0.65 mg/kg, ip administered thrice measured after 24 hrs; assay type: functional, organism-based
Mus musculus [11] = assay: Neuroprotective activity in mouse model of middle cerebral artery occlusion-induced transient brain ischemia assessed as decrease in ischemic volume at 0.65 mg/kg, ip administered thrice measured after 24 hrs (reference value: 58 +/- 2.6 %); assay type: functional; design: scale not given: the % may be the effect or the level left
Cortical neurone [12] = assay: Neuroprotective activity in OGD/Rx-induced E16 Wistar rat Primary cortical neurons assessed as increase in cell viability incubated for 3 hrs during OGD followed by reoxygenation with compound re-addition measured after 21 hrs by MTT assay; assay type: functional, cell-based; conditions: time 24.0 hrs
Mus musculus [13] = assay: Neuroprotective activity in mouse model of middle cerebral artery occlusion-induced transient brain ischemia assessed as reduction in general neurological deficits at 0.65 mg/kg, ip administered thrice measured upto 72 hrs; assay type: functional, organism-based
Mus musculus [14] = assay: Neuroprotective activity in mouse model of middle cerebral artery occlusion-induced transient brain ischemia assessed as reduction in ischemic volume at 0.65 mg/kg, ip administered thrice measured upto 72 hrs relative to control; assay type: functional; design: scale not given: the % may be the effect or the level left
Mus musculus [15] = assay: Neuroprotective activity in mouse model of middle cerebral artery occlusion-induced transient brain ischemia assessed as ischemic volume at 6.5 mg/kg, ip administered thrice measured after 24 hrs relative to control; assay type: functional
Mus musculus [16] = assay: Neuroprotective activity in mouse model of middle cerebral artery occlusion-induced transient brain ischemia assessed as ischemic volume at 0.65 mg/kg, ip administered thrice measured after 24 hrs relative to control; assay type: functional
Cortical neurone [17] = assay: Neuroprotective activity in OGD/Rx-induced E16 Wistar rat Primary cortical neurons assessed as increase in cell viability at 0.4 uM incubated for 3 hrs during OGD followed by reoxygenation with compound re-addition measured after 21 hrs by MTT assay; assay type: functional, cell-based; conditions: time 24.0 hrs
[18] = target: T4, Acid-sensing ion channel 1 (Homo sapiens); assay: Inhibition of ASIC1a in acid stimulated-human Neural Progenitor Cells assessed as reduction in current amplitude at pH 6.5 at 10 uM measured for 5 mins with acid stimulation for every 2 mins by electrophysiology (reference value: 92.41 +/- 33.66 pA); assay type: cell-based; conditions: Neural Progenitor Cell
Mus musculus [19] = assay: Neuroprotective activity in mouse model of middle cerebral artery occlusion-induced transient brain ischemia assessed as reduction in focal neurological deficits at 0.65 mg/kg, ip administered thrice measured upto 72 hrs; assay type: functional, organism-based
Cortical neurone [20] = assay: Neuroprotective activity in OGD/Rx-induced E16 Wistar rat Primary cortical neurons assessed as increase in cell viability at 1.9 uM incubated for 3 hrs during OGD followed by reoxygenation with compound re-addition measured after 21 hrs by MTT assay; assay type: functional, cell-based; conditions: time 24.0 hrs
Cortical neurone [21] = assay: Neuroprotective activity in OGD/Rx-induced E16 Wistar rat Primary cortical neurons assessed as increase in cell viability at 2.59 uM incubated for 3 hrs during OGD followed by reoxygenation with compound re-addition measured after 21 hrs by MTT assay; assay type: functional, cell-based

IC50 [1]: 2950 nM
SMILES: CC(C)(C)c1ccc(-c2cccc(-c3ccc(/C=N/NC(=N)N)cc3)c2)cc1
Activity (Cortical neurone [2]): Active

inhibition [3]: 69.7%
inhibition [4]: 72.9%
IC50 [1]: 518 nM
SMILES: COc1ccc(Cn2nc(-c3ccc(/C=N/NC(=N)N)cc3)cc2-c2ccc(/C=N/NC(=N)N)cc2)cc1
Activity (Cortical neurone [5]): Active

inhibition [3]: 95.9%
inhibition [4]: 24.2%
IC50 [1]: 9540 nM
SMILES: N=C(N)N/N=C/c1ccc(-c2cc(-c3ccc(F)cc3)on2)cc1
Activity (Cortical neurone [6]): Active

inhibition [9]: 70%
inhibition [3]: 35.4%
inhibition [4]: 53%
IC50 [1]: 407 nM
Activity [18]: 9.37 pA
SMILES: Cl.N=C(N)N/N=C\c1ccc(-c2cccc(-c3ccc(/C=N/NC(=N)N)cc3)c2)cc1
Activity (Mus musculus [7]): Active
Activity (Cortical neurone [8]): Active
Activity (Mus musculus [10]): Active
Activity (Mus musculus [11]): 34.7%
Activity (Cortical neurone [12]): Dose-Dependent Effect
Activity (Mus musculus [13]): Active
Activity (Mus musculus [14]): 35.3%
Activity (Mus musculus [15]): 50.1%
Activity (Mus musculus [16]): 47.1%
Activity (Cortical neurone [17]): Active
Activity (Mus musculus [19]): Active

inhibition [3]: 40.3%
IC50 [1]: 1990 nM
SMILES: COc1ccc(Cn2nc(-c3ccc(F)cc3)cc2-c2ccc(/C=N/NC(=N)N)cc2)cc1
Activity (Cortical neurone [20]): Active

inhibition [3]: 83.6%
inhibition [4]: 41.6%
IC50 [1]: 2590 nM
SMILES: N=C(N)N/N=C/c1ccc(-c2cc(-c3ccc(F)cc3)n[nH]2)cc1
Activity (Cortical neurone [21]): Active
